{"source": "patent US8618154B2", "about": "“LXR modulators” (Bristol-Myers Squibb Company, priority 2009, dated 2013)", "molecular_target": "T1, LXRα (Homo sapiens, UniProt Q13133)", "T1 construct": "Co-transfection expression plasmids, comprising full-length LXRα (pCMX-h LXRα); expressed in transfected cells; host or cells: CV-1 African green monkey kidney cells, transient transfection with FuGENE6", "T1 sequence (Q13133 1-447)": "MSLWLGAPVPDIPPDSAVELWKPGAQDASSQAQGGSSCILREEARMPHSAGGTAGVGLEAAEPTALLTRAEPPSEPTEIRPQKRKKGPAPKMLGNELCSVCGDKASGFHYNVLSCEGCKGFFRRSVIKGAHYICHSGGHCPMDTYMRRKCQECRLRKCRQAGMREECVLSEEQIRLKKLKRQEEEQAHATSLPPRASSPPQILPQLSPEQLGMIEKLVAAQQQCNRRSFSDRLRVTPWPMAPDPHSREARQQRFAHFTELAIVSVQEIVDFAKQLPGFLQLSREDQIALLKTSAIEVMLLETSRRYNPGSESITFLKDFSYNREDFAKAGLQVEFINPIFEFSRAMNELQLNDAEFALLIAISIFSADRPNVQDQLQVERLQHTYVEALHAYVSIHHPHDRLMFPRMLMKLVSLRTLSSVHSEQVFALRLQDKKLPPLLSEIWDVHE", "T1 sequence (P19793 1-462 partner)": "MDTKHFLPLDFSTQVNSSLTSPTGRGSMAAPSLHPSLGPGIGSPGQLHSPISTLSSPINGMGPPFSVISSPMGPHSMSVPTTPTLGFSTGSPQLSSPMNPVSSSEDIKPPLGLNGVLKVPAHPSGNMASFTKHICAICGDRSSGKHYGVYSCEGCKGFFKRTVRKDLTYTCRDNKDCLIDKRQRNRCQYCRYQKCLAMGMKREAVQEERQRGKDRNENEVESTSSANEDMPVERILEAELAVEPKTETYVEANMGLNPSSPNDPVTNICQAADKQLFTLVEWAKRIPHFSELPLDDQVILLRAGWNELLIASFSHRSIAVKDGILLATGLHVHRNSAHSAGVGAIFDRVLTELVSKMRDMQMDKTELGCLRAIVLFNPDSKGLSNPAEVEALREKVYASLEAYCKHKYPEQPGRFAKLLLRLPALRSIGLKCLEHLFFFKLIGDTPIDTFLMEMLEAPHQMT", "assay": "LXR/LXRE co-transfection assay (LXRα)", "type": "cell-based", "conditions": "for pEC50: CV-1 cells, LXRE luciferase reporter; for Emax: read-out: LXRα Eff (%)", "source_text": "To measure the ability of compounds to activate or inhibit the transcriptional activity of LXR in a cell based assay, the co-transfection assay was used. It has been shown that LXR functions as a heterodimer with RXR. For the co-transfection assay, expression plasmids for LXRα and LXRβ are introduced separately via transient transfection into mammalian cells along with a luciferase reporter plasmid that contains one copy of a DNA sequence that is bound by LXR-RXR heterodimers (LXRE; Willy, P. et. al. 1995). LXRs heterodimerize with the endogenous RXR. Treatment of transfected cells with an LXR agonist increases the transcriptional activity of LXR, which is measured by an increase in luciferase activity.\nCo-transfection expression plasmids, comprising full-length LXRα (pCMX-h LXRα or LXRβ (pCMX-hLXRβ), reporter plasmid (LXREx1-Tk-Luciferase), and control (pCMX-Galactosidase expression vector) (Willey et al. Genes & Development 9 1033-1045 (1995)).\nCV-1 cells were prepared 24 hours prior to the experiment by plating them into T-175 flasks or 500 cm^2 dishes in order to achieve 70-80% confluency on the day of the transfection. The number of cells to be transfected was determined by the number of plates to be screened. Each well of a 384 well plate requires ˜8000 cells. DNA Transfection Reagent was prepared by mixing the required plasmid DNAs with a cationic lipid transfection reagent FuGENE6 (Roche) by following the instructions provided with the reagents. Optimal DNA amounts were determined empirically per cell line and size of vessel to be transfected. For each T175 cm^2 flask a total of 20 μg of DNA, 60 μl of Fugene 6 and 1 ml of Optimem was mixed and added. Cells were then incubated at least 5 hours at 37° C. to prepare screening cells.\nAssay plates were prepared by dispensing 5 μL, of compound per well of a 384 well plate to achieve final compound concentration of 10 μM and no more than 0.5% DMSO. Media was removed from the screening cells, the cells trypsinized, harvested cells by centrifugation, counted, and plated at a density of approximately 8000 cells per well in the 384 well assay plate prepared above in a volume of about 45 μL. Assay plates containing both compounds and screening cells (50 μL, in total volume) were incubated for 20 hours at 37° C.\nAfter incubation with compounds, media was removed from the cells and luciferase assay reagent (30 μL/well) added. After ˜2 minutes at ambient temperature, the assay plates were read on a luminometer (PE Biosystems Northstar reader with on-board injectors, or equivalent).\nThe LXR/LXRE co-transfection assay can be used to establish the EC50/IC50 values for potency and percent activity or inhibition for efficacy. Efficacy defines the activity of a compound relative to a high control ((N-(3-((4-fluorophenyl)-(naphthalene-2-sulfonyl)amino)propyl)-2,2-dimethylpropionamide)) or a low control (DMSO/vehicle). The dose response curves are generated from a 10 point curve with concentrations differing by ½ LOG units.\nThe data from this assay is fitted to the following equation, from which the EC50 value may be solved: Y=Bottom+(Top−Bottom)/(1+10^((logEC50-X)*HillSlope)).\nThe EC50/IC50 is therefore defined as the concentration at which an agonist or antagonist elicits a response that is half way between the Top (maximum) and Bottom (baseline) values. The EC50/IC50 values represented are the averages of at least 2 and normally 3 independent experiments. The determination of the relative efficacy or % control for an agonist is by comparison to the maximum response achieved by ((N-(3-((4-fluorophenyl)-(naphthalene-2-sulfonyl)-amino)propyl)-2,2-dimethylpropionamide) that is measured individually in each dose response experiment.", "key": {"[1]": {"conditions": "efficacy relative to high control N-(3-((4-fluorophenyl)-(naphthalene-2-sulfonyl)amino)propyl)-2,2-dimethylpropionamide"}}, "note": "pEC50: −log10 of the molar value. Like-named read-outs stand apart in the source and are kept apart here.", "data": [{"compound": "Cc1cc(-c2cc(F)c(CO)c(S(C)(=O)=O)c2)ccc1-n1cc(C(C)(C)O)nc1C(C)(C)c1c(F)cccc1Cl", "note": "[Example 2, 2-(2-(2-(2-chloro-6-fluorophenyl)propan-2-yl)-1-(3′-fluoro-4′-(hydroxymethyl)-3-methyl-5′-(methylsulfonyl)biphenyl-4-yl)-1H-imidazol-4-yl)propan-2-ol]", "values": [{"measurement": "pEC50", "value": "> 7.00"}, {"measurement": "Emax", "setting": "[1]", "value": 10, "unit": "%"}]}, {"compound": "CC(C)(O)c1cn(-c2ccc(-c3cc(F)c(CO)c(S(C)(=O)=O)c3)cc2F)c(C(C)(C)c2ccccc2Cl)n1", "note": "[Example 6, 2-(2-(2-(2-Chloro-phenyl)propan-2-yl)-1-(3,3′-difluoro-4′-hydroxymethyl-5′-(methylsulfonyl)biphenyl-4-yl)-1H-imidazol-4-yl)-propan-2-ol]", "values": [{"measurement": "pEC50", "value": "> 7.00"}, {"measurement": "Emax", "setting": "[1]", "value": 25, "unit": "%"}]}, {"compound": "CC(C)(O)c1cn(-c2ccc(-c3cc(F)c(CO)c(S(C)(=O)=O)c3)cc2)c(C(C)(C)c2cccc(F)c2Cl)n1", "note": "[Example 4, 2-(2-(2-(2-chloro-3-fluorophenyl)propan-2-yl)-1-(3′-fluoro-4′-(hydroxymethyl)-5′-(methylsulfonyl)biphenyl-4-yl)-1H-imidazol-4-yl)propan-2-ol]", "values": [{"measurement": "Emax", "setting": "[1]", "value": 12, "unit": "%"}]}, {"compound": "CC(C)(O)c1cn(-c2ccc(-c3cc(F)c(CO)c(S(C)(=O)=O)c3)cc2F)c(C(C)(C)c2c(F)cccc2Cl)n1", "note": "[Example 7, 2-(2-(2-(2-chloro-6-fluorophenyl)propan-2-yl)-1-(3,3′-difluoro-4′-(hydroxymethyl)-5′-(methylsulfonyl)biphenyl-4-yl)-1H-imidazol-4-yl)propan-2-ol]", "values": [{"measurement": "pEC50", "value": "> 7.00"}, {"measurement": "Emax", "setting": "[1]", "value": 15, "unit": "%"}]}, {"compound": "CC(C)(O)c1cn(-c2ccc(-c3cc(F)c(CO)c(S(C)(=O)=O)c3)cc2F)c(Cc2ccccc2C(F)(F)F)n1", "note": "[Example 12, 2-(1-(3,3′-difluoro-4′-(hydroxymethyl)-5′-(methylsulfonyl)biphenyl-4-yl)-2-(2-(trifluoromethyl)benzyl)-1H-imidazol-4-yl)propan-2-ol]", "values": [{"measurement": "pEC50", "value": "> 7.00"}, {"measurement": "Emax", "setting": "[1]", "value": 13, "unit": "%"}]}, {"compound": "CC(C)(O)c1cn(-c2ccc(-c3cc(F)c(CO)c(S(C)(=O)=O)c3)cc2F)c(C(C)(C)c2c(Cl)cccc2Cl)n1", "note": "[Example 9, 2-(2-(2-(2,6-dichlorophenyl)propan-2-yl)-1-(3,3′-difluoro-4′-(hydroxymethyl)-5′-(methylsulfonyl)biphenyl-4-yl)-1H-imidazol-4-yl)propan-2-ol]", "values": [{"measurement": "Emax", "setting": "[1]", "value": 20, "unit": "%"}]}, {"compound": "CC(C)(O)c1cn(-c2ccc(-c3cc(F)c(CO)c(S(C)(=O)=O)c3)cc2Cl)c(C(C)(C)c2c(Cl)cccc2Cl)n1", "note": "[Example 3, 2-(1-(3-chloro-3′-fluoro-4′-(hydroxymethyl)-5′-(methylsulfonyl)biphenyl-4-yl)-2-(2-(2,6-dichlorophenyl)propan-2-yl)-1H-imidazol-4-yl)propan-2-ol]", "values": [{"measurement": "pEC50", "value": "> 7.00"}, {"measurement": "Emax", "setting": "[1]", "value": 6, "unit": "%"}]}, {"compound": "CC(C)(O)c1cn(-c2ccc(-c3cc(F)c(CO)c(S(C)(=O)=O)c3)cc2)c(Cc2c(Cl)cccc2Cl)n1", "note": "[Example 18, 2-(2-(2,6-dichlorobenzyl)-1-(3′-fluoro-4′-(hydroxymethyl)-5′-(methylsulfonyl)biphenyl-4-yl)-1H-imidazol-4-yl)propan-2-ol]", "values": [{"measurement": "pEC50", "value": "> 7.00"}, {"measurement": "Emax", "setting": "[1]", "value": 17, "unit": "%"}]}, {"compound": "CC(C)(O)c1cn(-c2ccc(-c3cc(F)c(CO)c(S(C)(=O)=O)c3)cc2F)c(Cc2ccc(F)cc2Cl)n1", "note": "[Example 14, 2-(2-(2-chloro-4-fluorobenzyl)-1-(3,3′-difluoro-4′-(hydroxymethyl)-5′-(methylsulfonyl)biphenyl-4-yl)-1H-imidazol-4-yl)propan-2-ol]", "values": [{"measurement": "pEC50", "value": "> 7.00"}, {"measurement": "Emax", "setting": "[1]", "value": 15, "unit": "%"}]}, {"compound": "CC(C)(O)c1cn(-c2ccc(-c3cc(F)c(CO)c(S(C)(=O)=O)c3)cc2F)c(Cc2ccccc2Cl)n1", "note": "[Example 20, 2-[2-(2-Chloro-benzyl)-1-(3,3′-difluoro-4′-hydroxymethyl-5′-methanesulfonyl-biphenyl-4-yl)-1H-imidazol-4-yl]-propan-2-ol]", "values": [{"measurement": "pEC50", "value": "6.00 to 7.00"}, {"measurement": "Emax", "setting": "[1]", "value": 15, "unit": "%"}]}, {"compound": "CC(C)(O)c1cn(-c2ccc(-c3cc(F)c(CO)c(S(C)(=O)=O)c3)cc2)c(C(C)(C)c2ccccc2F)n1", "note": "[Example 1, 2-(1-(3′-fluoro-4′-(hydroxymethyl)-5′-(methylsulfonyl)biphenyl-4-yl)-2-(2-(2-fluorophenyl)propan-2-yl)-1H-imidazol-4-yl)propan-2-ol]", "values": [{"measurement": "pEC50", "value": "6.00 to 7.00"}, {"measurement": "Emax", "setting": "[1]", "value": 13, "unit": "%"}]}, {"compound": "CC(C)(O)c1cn(-c2ccc(-c3cc(F)c(CO)c(S(C)(=O)=O)c3)cc2F)c(C(C)(C)c2ccccc2F)n1", "note": "[Example 8, 2-{1-(3,3′-Difluoro-4′-hydroxymethyl-5′-methanesulfonyl-biphenyl-4-yl)-2-[2-(2-fluorophenyl)propan-2-yl]-1H-imidazol-4-yl}-propan-2-ol]", "values": [{"measurement": "pEC50", "value": "> 7.00"}, {"measurement": "Emax", "setting": "[1]", "value": 10, "unit": "%"}]}, {"compound": "CC(C)(O)c1cn(-c2ccc(-c3cc(F)c(CO)c(S(C)(=O)=O)c3)cc2Cl)c(Cc2ccc(F)cc2Cl)n1", "note": "[Example 13, 2-(1-(3-chloro-3′-fluoro-4′-(hydroxymethyl)-5′-(methylsulfonyl)biphenyl-4-yl)-2-(2-chloro-4-fluorobenzyl)-1H-imidazol-4-yl)propan-2-ol]", "values": [{"measurement": "pEC50", "value": "> 7.00"}, {"measurement": "Emax", "setting": "[1]", "value": 18, "unit": "%"}]}, {"compound": "CC(c1c(Cl)cccc1Cl)c1nc(C(C)(C)O)cn1-c1ccc(-c2cc(F)c(CO)c(S(C)(=O)=O)c2)cc1F", "note": "(centres unmarked) [Example 21, 2-{2-[1-(2,6-dichlorophenyl)ethyl]-1-[3,3′-difluoro-4′-(hydroxymethyl)-5′-(methylsulfonyl)biphenyl-4-yl]-1H-imidazol-4-yl}propan-2-ol]", "values": [{"measurement": "pEC50", "value": "> 7.00"}, {"measurement": "Emax", "value": 18, "unit": "%"}]}, {"compound": "CC(C)(O)c1cn(-c2ccc(-c3cccc(S(C)(=O)=O)c3)cc2)c(C(C)(C)c2ccccc2Cl)n1", "note": "[Compound No. 19, Table 1, WO 2007/002563, reference compound]", "values": [{"measurement": "pEC50", "value": "6.00 to 7.00"}, {"measurement": "Emax", "setting": "[1]", "value": 38, "unit": "%"}]}, {"compound": "CC(C)(O)c1cn(-c2ccc(-c3cc(F)c(CO)c(S(C)(=O)=O)c3)cc2F)c(Cc2ccc(Cl)cc2Cl)n1", "note": "[Example 11, 2-(2-(2,4-dichlorobenzyl)-1-(3,3′-difluoro-4′-(hydroxymethyl)-5′-(methylsulfonyl)biphenyl-4-yl)-1H-imidazol-4-yl)propan-2-ol]", "values": [{"measurement": "pEC50", "value": "< 6.00"}]}]}
